In publication PMC12198282, “Application of a high-density microelectrode array assay using a 3D human iPSC-derived brain microphysiological system model for in vitro neurotoxicity screening of environmental compounds” (Archives of Toxicology, 2025):
Where two headings read alike, the source gives them in different places.

Key:
[1] = test system: co-culture of iPSC-derived excitatory and inhibitory neurons, and primary human astrocytes; parameters: method as in Bartmann et al. [2023]; conditions: ref Bartmann et al. [2023], cited from earlier work
BrainSpheres = test: Cytotoxicity evaluation, resazurin assay (BrainSphere.Cyto); assay type: cell-based, human; conditions: for AC50: day 13, Supplement 3 prints it also for curves with hit call 0, read-out: ac50 BrainSphere.Cyto; for hitc BrainSphere.Cyto: day 13, tcplfit2; for BMD BrainSphere.Cyto: tcplfit2 BMD at benchmark response (1.349*SD of baseline controls)
Procedure: For the resazurin assay, BrainSpheres were cultured for 7 weeks in non-treated 6-well plates under gyratory shaking. Subsequently, the cells were exposed in the same manner as the HD-MEA plates. This assay was used to determine cell viability after exposure for 13 days to the different compounds. After exposure, resazurin diluted in PBS was added directly to the 6-well plates to a final concentration of 0.1 mg/ml. The plates were then put in an incubator for 3 h at 37 °C, 5% CO2. Then, 100 µl of the media was collected and transferred in a 96-well plate for fluorescence analysis, which was done at ex:530 nm/em:590 nm in a multi-well fluorometric reader CytoFluor series 4000 (PerSeptive Biosystems, Inc).
Ten metrics were measured to evaluate changes in neural activity in the BrainSphere MEA assay (Table 3). Considering the complexity of the data which includes seven recording days for each single ROI in a well, an area under the curve (AUC) metric was used to reduce activity across time as described in previous publications (Brown et al. [2016]; Frank et al. [2017b]; Shafer et al. [2019]). […] For concentration–response modeling, the mean AUC values across all the BrainSpheres per well (technical replicates) was computed for each endpoint, such that each concentration included biological replicates from at least three separate wells on three separate plates, representing each individual experiment. The mean AUC values were used for concentration–response modeling using the R package tcplfit2 (version 0.1.6) (Sheffield et al. [2022]). Data were normalized as a percent of vehicle control wells by plate using the equation: resp.pc=rval-bval/bval×100 where resp.pc is the percent of control value, rval is the response value, and bval is the baseline value (defined as the mean of the vehicle control and the lowest tested concentration). […] The activity cutoff was defined as 3 times the median absolute deviation (bmad) of baseline values. A curve was defined as ‘active’ if the continuous hit call was ≥ 0.9. See Supplemental Table 1 for the bmad, activity cutoff threshold, SD, and benchmark response for each endpoint in the BrainSphere MEA. Potency was defined as the concentration at 50% maximal activity (AC50 log10 µM).

2D rat cortical cultures = conditions: cited from earlier work; for AC50: rNFA mc5; for hitc CCTE_Shafer_MEA_dev_active_electrodes_number / hitc CCTE_Shafer_MEA_dev_burst_duration_mean / hitc CCTE_Shafer_MEA_dev_burst_rate / hitc CCTE_Shafer_MEA_dev_bursting_electrodes_number / hitc CCTE_Shafer_MEA_dev_correlation_coefficient_mean / hitc CCTE_Shafer_MEA_dev_firing_rate_mean / hitc CCTE_Shafer_MEA_dev_inter_network_spike_interval_mean / hitc CCTE_Shafer_MEA_dev_interburst_interval_mean / hitc CCTE_Shafer_MEA_dev_mutual_information_norm / hitc CCTE_Shafer_MEA_dev_network_spike_duration_std / hitc CCTE_Shafer_MEA_dev_network_spike_number / hitc CCTE_Shafer_MEA_dev_network_spike_peak / hitc CCTE_Shafer_MEA_dev_per_burst_interspike_interval / hitc CCTE_Shafer_MEA_dev_per_burst_spike_percent / hitc CCTE_Shafer_MEA_dev_per_network_spike_spike_number_mean / hitc CCTE_Shafer_MEA_dev_per_network_spike_spike_percent / hitc CCTE_Shafer_MEA_dev_spike_duration_mean: rNFA mc5 hit call
[2] = aenm active_electrodes_number, read-out: ac50 CCTE_Shafer_MEA_dev_active_electrodes_number
[3] = aenm burst_duration_mean, read-out: ac50 CCTE_Shafer_MEA_dev_burst_duration_mean
[4] = aenm burst_rate, read-out: ac50 CCTE_Shafer_MEA_dev_burst_rate
[5] = aenm bursting_electrodes_number, read-out: ac50 CCTE_Shafer_MEA_dev_bursting_electrodes_number
[6] = aenm correlation_coefficient_mean, read-out: ac50 CCTE_Shafer_MEA_dev_correlation_coefficient_mean
[7] = aenm firing_rate_mean, read-out: ac50 CCTE_Shafer_MEA_dev_firing_rate_mean
[8] = aenm mutual_information_norm, read-out: ac50 CCTE_Shafer_MEA_dev_mutual_information_norm
[9] = aenm network_spike_duration_std, read-out: ac50 CCTE_Shafer_MEA_dev_network_spike_duration_std
[10] = aenm network_spike_number, read-out: ac50 CCTE_Shafer_MEA_dev_network_spike_number
[11] = aenm network_spike_peak, read-out: ac50 CCTE_Shafer_MEA_dev_network_spike_peak
[12] = aenm per_burst_interspike_interval, read-out: ac50 CCTE_Shafer_MEA_dev_per_burst_interspike_interval
[13] = aenm per_burst_spike_percent, read-out: ac50 CCTE_Shafer_MEA_dev_per_burst_spike_percent
[14] = aenm per_network_spike_spike_number_mean, read-out: ac50 CCTE_Shafer_MEA_dev_per_network_spike_spike_number_mean
[15] = aenm per_network_spike_spike_percent, read-out: ac50 CCTE_Shafer_MEA_dev_per_network_spike_spike_percent
[16] = aenm spike_duration_mean, read-out: ac50 CCTE_Shafer_MEA_dev_spike_duration_mean
[17] = aenm bursting_electrodes_number
[18] = aenm correlation_coefficient_mean
[19] = aenm inter_network_spike_interval_mean
[20] = aenm network_spike_duration_std
[21] = aenm per_burst_interspike_interval
[22] = aenm per_network_spike_spike_number_mean
[23] = aenm per_network_spike_spike_percent

CC1(C)[C@H](C(=O)O[C@H](C#N)c2cccc(Oc3ccccc3)c2)[C@@H]1C=C(Br)Br [Deltamethrin]
EC50 ([1]; read-out: Mean potency in the hNNF): 3530 nM | EC50 ([1]; read-out: Minimum potency in the hNNF): 2740 nM | Cytotoxicity / cell viability in the BrainSphere resazurin assay (in words) (BrainSpheres): magnitude of the response was not sufficient to indicate a positive response | AC50 (BrainSpheres; Homo sapiens, 312 h, resazurin): 45000 nM | Cytotoxicity hit (BrainSpheres; human): 0 | hitc BrainSphere.Cyto (BrainSpheres; resazurin): 0 | BMD BrainSphere.Cyto (BrainSpheres): 102 µM | AC50 (2D rat cortical cultures; [2]): 8890 nM | AC50 (2D rat cortical cultures; [3]): 5290 nM | AC50 (2D rat cortical cultures; [4]): 3860 nM | AC50 (2D rat cortical cultures; [5]): 3710 nM | AC50 (2D rat cortical cultures; [6]): 2040 nM | AC50 (2D rat cortical cultures; [7]): 3100 nM | AC50 (2D rat cortical cultures; [8]): 641 nM | AC50 (2D rat cortical cultures; [9]): 3820 nM | AC50 (2D rat cortical cultures; [10]): 853 nM | AC50 (2D rat cortical cultures; [11]): 7540 nM | AC50 (2D rat cortical cultures; [12]): 15000 nM | AC50 (2D rat cortical cultures; [13]): 7160 nM | AC50 (2D rat cortical cultures; [14]): 3960 nM | AC50 (2D rat cortical cultures; [15]): 1800 nM | AC50 (2D rat cortical cultures; [16]): 6400 nM | hitc CCTE_Shafer_MEA_dev_active_electrodes_number (2D rat cortical cultures; aenm active_electrodes_number): 1 | hitc CCTE_Shafer_MEA_dev_burst_duration_mean (2D rat cortical cultures; aenm burst_duration_mean): 1 | hitc CCTE_Shafer_MEA_dev_burst_rate (2D rat cortical cultures; aenm burst_rate): 1 | hitc CCTE_Shafer_MEA_dev_bursting_electrodes_number (2D rat cortical cultures; [17]): 1 | hitc CCTE_Shafer_MEA_dev_correlation_coefficient_mean (2D rat cortical cultures; [18]): 1 | hitc CCTE_Shafer_MEA_dev_firing_rate_mean (2D rat cortical cultures; aenm firing_rate_mean): 1 | hitc CCTE_Shafer_MEA_dev_inter_network_spike_interval_mean (2D rat cortical cultures; [19]): 0 | hitc CCTE_Shafer_MEA_dev_interburst_interval_mean (2D rat cortical cultures; aenm interburst_interval_mean): 0 | hitc CCTE_Shafer_MEA_dev_mutual_information_norm (2D rat cortical cultures; aenm mutual_information_norm): 1 | hitc CCTE_Shafer_MEA_dev_network_spike_duration_std (2D rat cortical cultures; [20]): 1 | hitc CCTE_Shafer_MEA_dev_network_spike_number (2D rat cortical cultures; aenm network_spike_number): 1 | hitc CCTE_Shafer_MEA_dev_network_spike_peak (2D rat cortical cultures; aenm network_spike_peak): 1 | hitc CCTE_Shafer_MEA_dev_per_burst_interspike_interval (2D rat cortical cultures; [21]): 1 | hitc CCTE_Shafer_MEA_dev_per_burst_spike_percent (2D rat cortical cultures; aenm per_burst_spike_percent): 1 | hitc CCTE_Shafer_MEA_dev_per_network_spike_spike_number_mean (2D rat cortical cultures; [22]): 1 | hitc CCTE_Shafer_MEA_dev_per_network_spike_spike_percent (2D rat cortical cultures; [23]): 1 | hitc CCTE_Shafer_MEA_dev_spike_duration_mean (2D rat cortical cultures; aenm spike_duration_mean): 1

[CH3][Hg][Cl] [Methylmercury]
Cytotoxicity / cell viability in the BrainSphere resazurin assay (in words) (BrainSpheres; day 13 of exposure): magnitude of the response was not sufficient to indicate a positive response | Cytotoxicity hit (BrainSpheres; resazurin, after 13 days of exposure): 0 | hitc BrainSphere.Cyto (BrainSpheres; resazurin): 0 | AC50 (BrainSpheres; resazurin): 190 nM | BMD BrainSphere.Cyto (BrainSpheres): 0.15 µM | ACC BrainSphere.Cyto (BrainSpheres; tcplfit2 output ACC, activity cutoff in Supplemental Table 1): 0.18 µM | Top BrainSphere.Cyto (BrainSpheres; top of winning model, response normalized as percent of vehicle control, negative = decrease): −10 | AC50 (2D rat cortical cultures; [2]): 360 nM | AC50 (2D rat cortical cultures; [3]): 260 nM | AC50 (2D rat cortical cultures; [4]): 207 nM | AC50 (2D rat cortical cultures; [5]): 370 nM | AC50 (2D rat cortical cultures; [6]): 306 nM | AC50 (2D rat cortical cultures; [7]): 177 nM | AC50 (2D rat cortical cultures; aenm inter_network_spike_interval_mean, read-out: ac50 CCTE_Shafer_MEA_dev_inter_network_spike_interval_mean): 6 nM | AC50 (2D rat cortical cultures; aenm interburst_interval_mean, read-out: ac50 CCTE_Shafer_MEA_dev_interburst_interval_mean): 340 nM | AC50 (2D rat cortical cultures; [8]): 134 nM | AC50 (2D rat cortical cultures; [9]): 164 nM | AC50 (2D rat cortical cultures; [10]): 87 nM | AC50 (2D rat cortical cultures; [11]): 356 nM | AC50 (2D rat cortical cultures; [12]): 322 nM | AC50 (2D rat cortical cultures; [13]): 306 nM | AC50 (2D rat cortical cultures; [14]): 536 nM | AC50 (2D rat cortical cultures; [15]): 309 nM | AC50 (2D rat cortical cultures; [16]): 275 nM | hitc CCTE_Shafer_MEA_dev_active_electrodes_number (2D rat cortical cultures; aenm active_electrodes_number): 1 | hitc CCTE_Shafer_MEA_dev_burst_duration_mean (2D rat cortical cultures; aenm burst_duration_mean): 1 | hitc CCTE_Shafer_MEA_dev_burst_rate (2D rat cortical cultures; aenm burst_rate): 1 | hitc CCTE_Shafer_MEA_dev_bursting_electrodes_number (2D rat cortical cultures; [17]): 1 | hitc CCTE_Shafer_MEA_dev_correlation_coefficient_mean (2D rat cortical cultures; [18]): 1 | hitc CCTE_Shafer_MEA_dev_firing_rate_mean (2D rat cortical cultures; aenm firing_rate_mean): 1 | hitc CCTE_Shafer_MEA_dev_inter_network_spike_interval_mean (2D rat cortical cultures; [19]): 1 | hitc CCTE_Shafer_MEA_dev_interburst_interval_mean (2D rat cortical cultures; aenm interburst_interval_mean): 1 | hitc CCTE_Shafer_MEA_dev_mutual_information_norm (2D rat cortical cultures; aenm mutual_information_norm): 1 | hitc CCTE_Shafer_MEA_dev_network_spike_duration_std (2D rat cortical cultures; [20]): 1 | hitc CCTE_Shafer_MEA_dev_network_spike_number (2D rat cortical cultures; aenm network_spike_number): 1 | hitc CCTE_Shafer_MEA_dev_network_spike_peak (2D rat cortical cultures; aenm network_spike_peak): 1 | hitc CCTE_Shafer_MEA_dev_per_burst_interspike_interval (2D rat cortical cultures; [21]): 1 | hitc CCTE_Shafer_MEA_dev_per_burst_spike_percent (2D rat cortical cultures; aenm per_burst_spike_percent): 1 | hitc CCTE_Shafer_MEA_dev_per_network_spike_spike_number_mean (2D rat cortical cultures; [22]): 1 | hitc CCTE_Shafer_MEA_dev_per_network_spike_spike_percent (2D rat cortical cultures; [23]): 1 | hitc CCTE_Shafer_MEA_dev_spike_duration_mean (2D rat cortical cultures; aenm spike_duration_mean): 1
